From patent US20250019378A1, “PYRROLE[2,3-B]PYRIDINE DERIVATIVES AS TYRO3 INHIBITORS” (HALIA THERAPEUTICS, INC., priority 2021, published 2025)

molecular target: recombinant human Tyro3 (Homo sapiens (Human), UniProt Q06418); assay: Tyro3 Enzymatic Assay; format: biochemical; conditions: radiometric [32P]-ATP kinase assay, Poly(Glu, Tyr) substrate, 2 nM enzyme
Description: Poly(Glu, Tyr) sodium salt (Glu:Tyr (4:1), quality level 200, molecular weight 5,000-20,000, obtained from Sigma Aldrich, catalogue #P7244, assay concentration 0.20 mg/mL) and recombinant human Tyro3 (obtained from ThermoFisher Scientific, catalogue #PV3828, assay concentration 2 nM) were mixed in assay buffer (20 mM Hepes pH 7.5, 10 mM MgCl2, […] EGTA, 0.02% Brij35, 0.02 mg/ml BSA, 0.1 mM Na3VO4, 2 mM DTT, 1% DMSO, with added MnCl2 at a final concentration of 2 mM). Compounds of interest (in DMSO, serial 3-fold dilution from 10 μM to 0.5 nM) or control (1% DMSO) were dispensed into the kinase reaction mixture by Acoustic technology (Echo550; nanoliter range). After incubation at room temperature for 20 minutes, the kinase reaction was initiated by addition of [^32P]-ATP (Specific activity 10 μCi/μL) and the mixture was incubated at room temperature for 2 hours. The reaction was then stopped by spotting the reaction mixture on strips of phosphocellulose P81 paper. Following washing, the radioactivity of the P81 paper was measured and kinase activity data were expressed as the percent remaining kinase activity in test samples compared to vehicle (dimethyl sulfoxide) reactions. IC50 values and curve fits were obtained using Prism (GraphPad Software).

recombinant human Tyro3, sequence (Q06418 41-890): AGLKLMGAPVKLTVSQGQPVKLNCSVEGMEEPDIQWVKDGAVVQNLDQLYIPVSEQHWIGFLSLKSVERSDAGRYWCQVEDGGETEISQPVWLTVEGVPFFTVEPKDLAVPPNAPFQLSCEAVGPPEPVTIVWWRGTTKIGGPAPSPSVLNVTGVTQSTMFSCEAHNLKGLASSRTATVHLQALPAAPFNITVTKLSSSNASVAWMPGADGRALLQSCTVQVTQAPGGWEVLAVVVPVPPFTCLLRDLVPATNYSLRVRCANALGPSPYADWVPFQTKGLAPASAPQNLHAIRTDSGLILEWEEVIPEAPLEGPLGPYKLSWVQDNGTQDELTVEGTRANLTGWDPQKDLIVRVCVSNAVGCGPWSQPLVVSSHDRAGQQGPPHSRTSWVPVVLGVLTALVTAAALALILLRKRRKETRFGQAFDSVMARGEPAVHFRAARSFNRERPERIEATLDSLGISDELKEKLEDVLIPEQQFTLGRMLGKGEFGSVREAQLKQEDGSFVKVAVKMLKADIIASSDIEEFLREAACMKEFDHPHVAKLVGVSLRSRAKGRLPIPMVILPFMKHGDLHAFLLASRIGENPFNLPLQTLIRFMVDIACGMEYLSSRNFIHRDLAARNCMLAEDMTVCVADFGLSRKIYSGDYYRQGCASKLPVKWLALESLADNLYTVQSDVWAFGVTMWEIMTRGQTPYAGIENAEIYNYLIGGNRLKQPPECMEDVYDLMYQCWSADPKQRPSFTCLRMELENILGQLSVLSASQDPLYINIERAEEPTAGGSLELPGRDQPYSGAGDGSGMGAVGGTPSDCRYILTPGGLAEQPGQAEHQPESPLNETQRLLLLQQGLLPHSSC

Row | IC50 [nM] | SMILES
1 | 51 to 150 | CCc1[nH]c2ncc(-c3cn(C4CCN(C)CC4)nc3Cl)cc2c1-c1ccc(OC)nc1 [Compound 23, 5-(3-chloro-1-(1-methylpiperidin-4-yl)-1H-pyrazol-4-yl)-2-ethyl-3-(6-methoxypyridin-3-yl)-1H-pyrrolo[2,3-b]pyridine]
2 | 151 to 501 | COc1nn(C2CCCN(C)C2)cc1-c1cnc2[nH]cc(-c3cccc(F)c3)c2c1 (centres unmarked) [Compound 15, 3-(3-fluorophenyl)-5-(3-methoxy-1-(1-methylpiperidin-3-yl)-1H-pyrazol-4-yl)-1H-pyrrolo[2,3-b]pyridine]
3 | < 50 | COc1ccc(-c2c[nH]c3ncc(-c4cn(C5CCN(C)CC5)nc4Cl)cc23)cn1 [Compound 5, 5-(3-chloro-1-(1-methylpiperidin-4-yl)-1H-pyrazol-4-yl)-3-(6-methoxypyridin-3-yl)-1H-pyrrolo[2,3-b]pyridine]
4 | < 50 | COc1nn(C2CCCN(C)CC2)cc1-c1cnc2[nH]cc(-c3cccc(F)c3)c2c1 (centres unmarked) [Compound 14, 3-(3-fluorophenyl)-5-(3-methoxy-1-(1-methylazepan-4-yl)-1H-pyrazol-4-yl)-1H-pyrrolo[2,3-b]pyridine]
5 | < 50 | COc1nn(C2CCN(C)C2)cc1-c1cnc2[nH]cc(-c3cccc(F)c3)c2c1 (centres unmarked) [Compound 12, 3-(3-fluorophenyl)-5-(3-methoxy-1-(1-methylpyrrolidin-3-yl)-1H-pyrazol-4-yl)-1H-pyrrolo[2,3-b]pyridine]
6 | < 50 | COc1nn(C2CCN(C)CC2)cc1-c1cnc2[nH]cc(-c3ccnc(C(F)F)c3)c2c1 [Compound 20, 3-(2-(difluoromethyl)pyridin-4-yl)-5-(3-methoxy-1-(1-methylpiperidin-4-yl)-1H-pyrazol-4-yl)-1H-pyrrolo[2,3-b]pyridine]
7 | 51 to 150 | COCCN1CCC(n2cc(-c3cnc4[nH]cc(-c5cccc(F)c5)c4c3)c(OC)n2)CC1 [Compound 29, 3-(3-fluorophenyl)-5-(3-methoxy-1-(1-(2-methoxyethyl)piperidin-4-yl)-1H-pyrazol-4-yl)-1H-pyrrolo[2,3-b]pyridine]
8 | > 500 | COc1ccc(-c2c[nH]c3ncc(-c4cnn(C5CC(OC)C5)c4)cc23)cn1 (centres unmarked) [Compound 33, 5-(1-(3-methoxycyclobutyl)-1H-pyrazol-4-yl)-3-(6-methoxypyridin-3-yl)-1H-pyrrolo[2,3-b]pyridine]
9 | < 50 | CN1CCC(n2cc(-c3cnc4[nH]cc(-c5cccc(C(F)F)c5)c4c3)c(Cl)n2)CC1 [Compound 18, 5-(3-chloro-1-(1-methylpiperidin-4-yl)-1H-pyrazol-4-yl)-3-(3-(difluoromethyl)phenyl)-1H-pyrrolo[2,3-b]pyridine]
10 | 151 to 501 | COc1ccc(-c2c[nH]c3ncc(-c4cnn(C5CCC(O)CC5)c4)cc23)cn1 (centres unmarked) [Compound 32, 4-(4-(3-(6-methoxypyridin-3-yl)-1H-pyrrolo[2,3-b]pyridin-5-yl)-1H-pyrazol-1-yl)cyclohexan-1-ol]
11 | 51 to 150 | CCc1[nH]c2ncc(-c3cn(C4CCN(C)CC4)nc3OC)cc2c1-c1ccc(OC)nc1 [Compound 21, 2-ethyl-5-(3-methoxy-1-(1-methylpiperidin-4-yl)-1H-pyrazol-4-yl)-3-(6-methoxypyridin-3-yl)-1H-pyrrolo[2,3-b]pyridine]
12 | < 50 | COc1nn(C2CCN(C)CC2)cc1-c1cnc2[nH]cc(-c3cccc(C(F)F)c3)c2c1 [Compound 16, 3-(3-(difluoromethyl)phenyl)-5-(3-methoxy-1-(1-methylpiperidin-4-yl)-1H-pyrazol-4-yl)-1H-pyrrolo[2,3-b]pyridine]
13 | > 500 | COc1ccc(-c2c[nH]c3ncc(-c4ccn(C5CCN(C)CC5)n4)cc23)cn1 [Compound 6, 3-(6-methoxypyridin-3-yl)-5-(1-(1-methylpiperidin-4-yl)-1H-pyrazol-3-yl)-1H-pyrrolo[2,3-b]pyridine]
14 | > 500 | COc1ccc(-c2c[nH]c3ncc(-c4cc(CN5CCCC(O)C5)n(C)n4)cc23)cn1 (centres unmarked) [Compound 35, 1-((3-(3-(6-methoxypyridin-3-yl)-1H-pyrrolo[2,3-b]pyridin-5-yl)-1-methyl-1H-pyrazol-5-yl)methyl)piperidin-3-ol]
15 | < 50 | COc1ccc(-c2c[nH]c3ncc(-c4cn(C5CCN(C)CC5)nc4OC)cc23)cn1 [Compound 2, 5-(3-methoxy-1-(1-methylpiperidin-4-yl)-1H-pyrazol-4-yl)-3-(6-methoxypyridin-3-yl)-1H-pyrrolo[2,3-b]pyridine]
16 | 51 to 150 | CCc1[nH]c2ncc(-c3cn(C4CCN(C)CC4)nc3OC)cc2c1-c1cccc(F)c1 [Compound 24, 2-ethyl-3-(3-fluorophenyl)-5-(3-methoxy-1-(1-methylpiperidin-4-yl)-1H-pyrazol-4-yl)-1/-pyrrolo[2,3-b]pyridine]

Row | IC50 [nM] | SMILES
17 | 151 to 501 | COc1ccc(-c2c[nH]c3ncc(-c4cnn(CC5CCN(C)CC5)c4)cc23)cn1 [Compound 31, 3-(6-methoxypyridin-3-yl)-5-(1-((1-methylpiperidin-4-yl)methyl)-1H-pyrazol-4-yl)-1H-pyrrolo[2,3-b]pyridine]
18 | 51 to 150 | CCc1[nH]c2ncc(-c3cn(C4CCN(CC)CC4)nc3F)cc2c1-c1ccc(OC)nc1 [Compound 22, 2-ethyl-5-(1-(1-ethylpiperidin-4-yl)-3-fluoro-1H-pyrazol-4-yl)-3-(6-methoxypyridin-3-yl)-1H-pyrrolo[2,3-b]pyridine]
19 | > 500 | COc1ccc(-c2c[nH]c3ncc(-c4cnn(C5CCN(C)CC5)c4C)cc23)cn1 [Compound 9, 3-(6-methoxypyridin-3-yl)-5-(5-methyl-1-(1-methylpiperidin-4-yl)-1H-pyrazol-4-yl)-1H-pyrrolo[2,3-b]pyridine]
20 | 51 to 150 | COc1ccc(-c2c[nH]c3ncc(-c4cn(C5CCN(C)CC5)nc4F)cc23)cn1 [Compound 4, 5-(3-fluoro-1-(1-methylpiperidin-4-yl)-1H-pyrazol-4-yl)-3-(6-methoxypyridin-3-yl)-1H-pyrrolo[2,3-b]pyridine]
21 | < 50 | CCOc1nn(C2CCN(C)CC2)cc1-c1cnc2[nH]cc(-c3ccc(C(F)F)nc3)c2c1 [Compound 19, 3-(6-(difluoromethyl)pyridin-3-yl)-5-(3-ethoxy-1-(1-methylpiperidin-4-yl)-1H-pyrazol-4-yl)-1H-pyrrolo[2,3-b]pyridine]
22 | < 50 | COc1nn(C2CCN(C)CC2)cc1-c1cnc2[nH]cc(-c3cccc(F)c3)c2c1 [Compound 10, 3-(3-fluorophenyl)-5-(3-methoxy-1-(1-methylpiperidin-4-yl)-1H-pyrazol-4-yl)-1H-pyrrolo[2,3-b]pyridine]
23 | > 500 | COc1ccc(-c2c[nH]c3ncc(-c4ccnn4C4CCN(C)CC4)cc23)cn1 [Compound 7, 3-(6-methoxypyridin-3-yl)-5-(1-(1-methylpiperidin-4-yl)-1H-pyrazol-5-yl)-1H-pyrrolo[2,3-b]pyridine]
24 | < 50 | COc1nn(C2CN(C)C2)cc1-c1cnc2[nH]cc(-c3cccc(F)c3)c2c1 [Compound 13, 3-(3-fluorophenyl)-5-(3-methoxy-1-(1-methylazetidin-3-yl)-1H-pyrazol-4-yl)-1H-pyrrolo[2,3-b]pyridine]
25 | 51 to 150 | CCc1[nH]c2ncc(-c3cn(C4CCN(C)CC4)nc3OC)cc2c1-c1cccc(C(F)F)c1 [Compound 27, 3-(3-(difluoromethyl)phenyl)-2-ethyl-5-(3-methoxy-1-(1-methylpiperidin-4-yl)-1H-pyrazol-4-yl)-1H-pyrrolo[2,3-b]pyridine]
26 | 151 to 501 | COc1ccc(-c2c[nH]c3ncc(-c4cn(C5CCN(C)CC5)nc4C)cc23)cn1 [Compound 8, 3-(6-methoxypyridin-3-yl)-5-(3-methyl-1-(1-methylpiperidin-4-yl)-1H-pyrazol-4-yl)-1H-pyrrolo[2,3-b]pyridine]
27 | < 50 | CCOc1nn(C2CCN(C)CC2)cc1-c1cnc2[nH]cc(-c3ccc(OC)nc3)c2c1 [Compound 3, 5-(3-ethoxy-1-(1-methylpiperidin-4-yl)-1H-pyrazol-4-yl)-3-(6-methoxypyridin-3-yl)-1H-pyrrolo[2,3-b]pyridine]
28 | 151 to 501 | COc1ccc(-c2c[nH]c3ncc(-c4cnn(C5CCN(C)CC5)c4)cc23)cn1 [Compound 1, 3-(6-methoxypyridin-3-yl)-5-(1-(1-methylpiperidin-4-yl)-1H-pyrazol-4-yl)-1H-pyrrolo[2,3-b]pyridine]
29 | 51 to 150 | CCc1[nH]c2ncc(-c3cn(C4CCN(C)CC4)nc3F)cc2c1-c1cccc(F)c1 [Compound 25, 2-ethyl-5-(3-fluoro-1-(1-methylpiperidin-4-yl)-1H-pyrazol-4-yl)-3-(3-fluorophenyl)-1H-pyrrolo[2,3-b]pyridine]
30 | 51 to 150 | COc1nn(C2CCN(C)CC2)cc1-c1cnc2[nH]c(Cl)c(-c3cccc(F)c3)c2c1 [Compound 28, 2-chloro-3-(3-fluorophenyl)-5-(3-methoxy-1-(1-methylpiperidin-4-yl)-1H-pyrazol-4-yl)-1H-pyrrolo[2,3-b]pyridine]
31 | < 50 | CN1CCC(n2cc(-c3cnc4[nH]cc(-c5cccc(F)c5)c4c3)c(Cl)n2)CC1 [Compound 11, 5-(3-chloro-1-(1-methylpiperidin-4-yl)-1H-pyrazol-4-yl)-3-(3-fluorophenyl)-1H-pyrrolo[2,3-b]pyridine]
32 | 51 to 150 | CN1CCC(n2cc(-c3cnc4[nH]cc(-c5cccc(C(F)F)c5)c4c3)c(F)n2)CC1 [Compound 17, 3-(3-(difluoromethyl)phenyl)-5-(3-fluoro-1-(1-methylpiperidin-4-yl)-1H-pyrazol-4-yl)-1H-pyrrolo[2,3-b]pyridine]
